Laboratory results published in ChEMBL document CHEMBL3797194, “Benzimidazolone bioisosteres of potent GluN2B selective NMDA receptor antagonists” (Eur J Med Chem, 2016).

How the values were obtained:
[1] = biological target: Sigma non-opioid intracellular receptor 1 (Cavia porcellus, UniProt Q60492); test: Displacement of [3H]-(+)-Pentazocine from sigma1 receptor in guinea pig brain homogenate incubated for 120 mins by solid scintillation counting analysis; format: tissue-based
[2] = Displacement of [3H]DTG from sigma2 receptor in rat liver homogenate incubated for 120 mins by solid scintillation counting analysis; format: tissue-based
[3] = biological target: T1, Glutamate receptor ionotropic, NMDA 2B (Homo sapiens, UniProt Q13224); test: Displacement of [3H]ifenprodil from recombinant human GluN2B expressed in mouse L(tk-) cell membranes incubated for 120 mins by microbeta scintillation counting analysis
Target sequence in this assay (Q13224 whole entry): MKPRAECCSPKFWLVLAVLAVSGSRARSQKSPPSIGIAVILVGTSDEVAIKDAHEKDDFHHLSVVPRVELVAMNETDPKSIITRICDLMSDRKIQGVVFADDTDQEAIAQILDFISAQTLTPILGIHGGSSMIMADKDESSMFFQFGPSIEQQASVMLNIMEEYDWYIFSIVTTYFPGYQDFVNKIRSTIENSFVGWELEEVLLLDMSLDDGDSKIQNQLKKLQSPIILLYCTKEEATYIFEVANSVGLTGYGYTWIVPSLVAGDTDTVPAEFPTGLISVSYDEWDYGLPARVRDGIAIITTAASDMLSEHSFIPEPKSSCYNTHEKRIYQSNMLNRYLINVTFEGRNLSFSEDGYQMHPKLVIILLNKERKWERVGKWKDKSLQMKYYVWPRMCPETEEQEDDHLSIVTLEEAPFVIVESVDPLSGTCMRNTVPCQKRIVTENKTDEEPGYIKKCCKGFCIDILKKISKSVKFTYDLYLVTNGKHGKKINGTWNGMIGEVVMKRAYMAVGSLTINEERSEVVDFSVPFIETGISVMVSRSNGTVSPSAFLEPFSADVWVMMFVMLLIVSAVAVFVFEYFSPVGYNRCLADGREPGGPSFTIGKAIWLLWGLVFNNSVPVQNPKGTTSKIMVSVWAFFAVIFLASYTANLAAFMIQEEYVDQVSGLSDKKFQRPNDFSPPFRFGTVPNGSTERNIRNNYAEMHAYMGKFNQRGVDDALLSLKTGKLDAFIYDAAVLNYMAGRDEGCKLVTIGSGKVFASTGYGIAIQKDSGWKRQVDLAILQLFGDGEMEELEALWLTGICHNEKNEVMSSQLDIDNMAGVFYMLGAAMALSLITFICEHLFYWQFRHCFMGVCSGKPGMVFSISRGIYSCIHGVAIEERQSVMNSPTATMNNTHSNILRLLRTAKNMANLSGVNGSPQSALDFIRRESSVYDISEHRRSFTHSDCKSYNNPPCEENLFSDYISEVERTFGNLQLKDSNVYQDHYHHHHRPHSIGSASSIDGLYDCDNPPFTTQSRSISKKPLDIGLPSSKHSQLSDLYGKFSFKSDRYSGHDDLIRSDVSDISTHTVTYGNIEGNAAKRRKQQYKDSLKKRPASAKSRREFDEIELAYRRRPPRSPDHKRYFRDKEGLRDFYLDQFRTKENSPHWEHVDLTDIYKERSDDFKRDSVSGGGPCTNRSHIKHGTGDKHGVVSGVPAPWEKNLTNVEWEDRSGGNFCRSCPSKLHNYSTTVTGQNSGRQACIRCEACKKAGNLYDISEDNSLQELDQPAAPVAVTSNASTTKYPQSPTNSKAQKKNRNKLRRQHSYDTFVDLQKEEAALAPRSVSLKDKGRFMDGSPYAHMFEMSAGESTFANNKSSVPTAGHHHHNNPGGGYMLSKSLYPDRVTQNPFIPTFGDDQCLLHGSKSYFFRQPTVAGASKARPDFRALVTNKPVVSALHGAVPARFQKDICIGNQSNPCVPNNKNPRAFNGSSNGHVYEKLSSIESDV

Rattus norvegicus = organism: Rattus norvegicus; test: Displacement of [3H]DTG from sigma2 receptor in rat liver homogenate at 1 uM incubated for 120 mins by solid scintillation counting analysis; format: tissue-based
[4] = biological target: T1, Glutamate receptor ionotropic, NMDA 2B; test: Displacement of [3H]ifenprodil from recombinant human GluN2B expressed in mouse L(tk-) cell membranes at 1 uM incubated for 120 mins by microbeta scintillation counting analysis
Target sequence in this assay (Q13224 27-1484 limits assumed): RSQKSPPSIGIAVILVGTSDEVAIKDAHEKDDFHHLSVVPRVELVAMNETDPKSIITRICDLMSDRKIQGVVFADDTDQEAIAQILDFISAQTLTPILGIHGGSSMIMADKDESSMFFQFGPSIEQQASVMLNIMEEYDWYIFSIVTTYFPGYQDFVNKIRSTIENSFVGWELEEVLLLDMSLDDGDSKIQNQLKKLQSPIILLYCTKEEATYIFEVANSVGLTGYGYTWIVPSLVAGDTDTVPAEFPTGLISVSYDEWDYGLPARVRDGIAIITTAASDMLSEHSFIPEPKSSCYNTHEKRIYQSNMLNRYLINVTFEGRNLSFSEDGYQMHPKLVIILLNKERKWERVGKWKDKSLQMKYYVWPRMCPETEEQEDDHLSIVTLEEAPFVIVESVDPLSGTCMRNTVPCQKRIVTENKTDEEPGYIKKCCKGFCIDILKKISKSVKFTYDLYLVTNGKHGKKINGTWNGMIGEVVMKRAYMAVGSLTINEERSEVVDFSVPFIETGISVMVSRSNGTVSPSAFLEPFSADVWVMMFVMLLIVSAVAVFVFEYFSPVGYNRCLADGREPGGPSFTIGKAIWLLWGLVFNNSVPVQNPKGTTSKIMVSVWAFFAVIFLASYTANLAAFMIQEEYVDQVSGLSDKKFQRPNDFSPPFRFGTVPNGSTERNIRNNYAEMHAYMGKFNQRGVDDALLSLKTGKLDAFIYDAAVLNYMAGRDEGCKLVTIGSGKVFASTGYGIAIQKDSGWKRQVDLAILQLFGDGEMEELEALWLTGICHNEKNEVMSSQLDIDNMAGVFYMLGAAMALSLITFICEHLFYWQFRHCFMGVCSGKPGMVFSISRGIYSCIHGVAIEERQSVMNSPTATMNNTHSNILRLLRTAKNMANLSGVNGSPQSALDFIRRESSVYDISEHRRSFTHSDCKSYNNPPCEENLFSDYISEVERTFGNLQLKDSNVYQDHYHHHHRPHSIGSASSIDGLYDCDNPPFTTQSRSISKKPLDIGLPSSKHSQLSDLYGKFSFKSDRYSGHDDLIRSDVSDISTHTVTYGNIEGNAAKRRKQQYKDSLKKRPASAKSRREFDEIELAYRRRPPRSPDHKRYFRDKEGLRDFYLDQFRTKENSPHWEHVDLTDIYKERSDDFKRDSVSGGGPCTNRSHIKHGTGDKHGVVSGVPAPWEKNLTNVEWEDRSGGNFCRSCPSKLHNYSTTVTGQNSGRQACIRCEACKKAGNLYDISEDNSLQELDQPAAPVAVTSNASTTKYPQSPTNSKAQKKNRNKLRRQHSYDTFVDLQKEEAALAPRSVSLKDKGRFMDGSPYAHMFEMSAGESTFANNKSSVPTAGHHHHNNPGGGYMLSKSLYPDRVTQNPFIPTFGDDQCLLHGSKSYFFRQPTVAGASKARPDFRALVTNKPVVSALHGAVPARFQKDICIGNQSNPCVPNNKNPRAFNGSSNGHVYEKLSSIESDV

[5] = biological target: Sigma non-opioid intracellular receptor 1 (Cavia porcellus) (UniProt Q60492); test: Displacement of [3H]-(+)-Pentazocine from sigma1 receptor in guinea pig brain homogenate at 1 uM incubated for 120 mins by solid scintillation counting analysis; format: tissue-based
Chain of Sigma non-opioid intracellular receptor 1 (Cavia porcellus) (Q60492 whole entry): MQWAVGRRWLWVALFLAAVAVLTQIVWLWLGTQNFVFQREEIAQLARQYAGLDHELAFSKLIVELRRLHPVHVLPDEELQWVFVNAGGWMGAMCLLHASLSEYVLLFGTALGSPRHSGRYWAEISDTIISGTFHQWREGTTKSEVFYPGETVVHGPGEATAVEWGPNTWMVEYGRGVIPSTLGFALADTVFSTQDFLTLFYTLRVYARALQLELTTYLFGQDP

[6] = biological target: T1, Glutamate receptor ionotropic, NMDA 2B; test: Binding affinity to GluN2B (unknown origin)
Target sequence in this assay (Q13224 whole entry): as the sequence (Q13224 whole entry) above

Chain of Sigma non-opioid intracellular receptor 1 (Q60492 whole entry): as the sequence (Q60492 whole entry) above

| Structure (SMILES) | Ki [2] [nM] | inhibition (Rattus norvegicus) [%] | inhibition [4] [%] | inhibition [5] [%] | also measured |
| --- | --- | --- | --- | --- | --- |
| Cn1c(=O)n(C)c2cc3c(cc21)CCCC(NCCCc1ccccc1)C3 (racemic) | 549 | – | – | – | Ki [1]: 4000 nM; Ki [3]: 697 nM |
| Cn1c(=O)n(C)c2cc3c(cc21)CCC[C@@H](O)[C@@H]3O (racemic) | – | 18 | 18 | 0 | – |
| O=c1[nH]c2ccc([S+]([O-])CCN3CCC(Cc4ccc(F)cc4)CC3)cc2o1 (centres undefined) [BESONPRODIL] | – | – | – | – | Ki [6]: 30 nM |
| Cc1ccccc1NC(=N)Nc1ccccc1C [DITOLYLGUANIDINE] | 57.5 | – | – | – | – |

More lines, main results first:

| Ki [2] [nM] | inhibition (Rattus norvegicus) [%] | inhibition [4] [%] | inhibition [5] [%] | Structure (SMILES) | also measured |
| --- | --- | --- | --- | --- | --- |
| – | 32 | 0 | 19 | Cn1c(=O)n(C)c2cc3c(cc21)CCC[C@@H](O)[C@@H]3NCCCc1ccccc1 (racemic) | – |
| – | 5 | 0 | 11 | Cn1c(=O)n(C)c2cc3c(cc21)CCC[C@H](O)[C@@H]3O (racemic) | – |
